Source: patent US12358948B2, “Neurotensinergic agonists and methods of using same preventing or treating pain” (priority 2019, dated 2025)
Where two headings read alike, the source gives them in different places. Where a SMILES comes first, the peptide text is derived from it. Bridges are numbered along the chain shown (N, C = ends). [ ]: non-standard residue; d: D form. Ala(E-styryl) = N[C@@H](C/C=C/c1ccccc1)C(=O)O; Bpa = N[C@@H](Cc1ccc(C(=O)c2ccccc2)cc1)C(=O)O; Bip = N[C@@H](Cc1ccc(-c2ccccc2)cc1)C(=O)O; Dip = N[C@H](C(=O)O)C(c1ccccc1)c1ccccc1; Ala(cPent) = N[C@@H](CC1CCCC1)C(=O)O; 2Thi = N[C@@H](Cc1cccs1)C(=O)O; Cit = NC(=O)NCCC[C@H](N)C(=O)O; AllylGly = C=CC[C@H](N)C(=O)O; Cba = N[C@@H](CC1CCC1)C(=O)O; Pen = CC(C)(S)[C@H](N)C(=O)O; hLys = NCCCCC[C@H](N)C(=O)O

How the values were obtained:
[1] = biological target: T1, hNTS2 receptor (Homo sapiens, UniProt O95665); experiment: Competitive radioligand binding assay on the hNTS2 receptor; settings: for IC50: membranes of 1321N1 cells expressing hNTS2; for Selectivity: ratio IC50 for NTS1 : IC50 for NTS2
T1 construct: membranes prepared from them
Procedure, shortened: (§1)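 IC50 values came from one-site competition curves against ¹²⁵I-[Tyr³]-NT after 60 min at 25 °C (pH 7.5 Tris, 0.2% BSA), with analogues at 10⁻¹¹–10⁻⁴ M and nonspecific binding set by 10⁻⁵ M NT(8-13). hNTS1 used 15 µg CHO-K1 membranes with […] tracer; hNTS2 used 50 µg 1321N1 membranes with […] tracer.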

[2] = biological target: T2, hNTS1 receptor (Homo sapiens, UniProt P30989); experiment: Competitive radioligand binding assay on the hNTS1 receptor; settings: membranes of CHO-K1 cells expressing hNTS1
T2 construct: membranes prepared from them
Procedure, shortened: as §1

[3] = displacement of 125I-[Tyr3]-NT, read-out: IC50 NTS2 (converted)
[4] = displacement of 125I-[Tyr3]-NT, read-out: IC50 NTS1

T1 sequence (O95665 whole entry): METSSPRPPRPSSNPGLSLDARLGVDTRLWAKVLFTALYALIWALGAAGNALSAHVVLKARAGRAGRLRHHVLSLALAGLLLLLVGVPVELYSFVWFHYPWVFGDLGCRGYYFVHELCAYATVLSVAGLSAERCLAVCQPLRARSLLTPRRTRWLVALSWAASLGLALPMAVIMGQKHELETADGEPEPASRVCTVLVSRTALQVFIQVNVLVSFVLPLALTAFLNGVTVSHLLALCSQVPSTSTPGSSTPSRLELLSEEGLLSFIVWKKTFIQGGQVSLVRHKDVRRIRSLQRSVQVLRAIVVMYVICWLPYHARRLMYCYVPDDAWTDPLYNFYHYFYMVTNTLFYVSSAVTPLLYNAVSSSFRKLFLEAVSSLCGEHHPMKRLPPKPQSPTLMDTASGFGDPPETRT
T2 sequence (P30989 whole entry): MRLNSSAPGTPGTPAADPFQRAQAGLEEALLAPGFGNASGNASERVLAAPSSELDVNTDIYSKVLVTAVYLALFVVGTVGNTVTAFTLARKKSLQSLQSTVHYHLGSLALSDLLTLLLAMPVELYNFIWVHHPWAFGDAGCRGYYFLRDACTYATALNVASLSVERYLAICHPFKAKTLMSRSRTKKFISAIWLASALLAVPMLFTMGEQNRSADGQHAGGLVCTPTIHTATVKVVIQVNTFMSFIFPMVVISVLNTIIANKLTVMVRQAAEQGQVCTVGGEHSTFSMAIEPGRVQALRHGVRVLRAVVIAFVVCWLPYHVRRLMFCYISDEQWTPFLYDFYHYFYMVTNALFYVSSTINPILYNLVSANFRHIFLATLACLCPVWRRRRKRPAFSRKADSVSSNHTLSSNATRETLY

Compound | IC50 [1, 3] [µM] | Selectivity [1] | IC50 [2, 4] [µM] | IC50 ([1]; IC50 NTS2, displacement of 125I-[Tyr3]-NT) [µM] | IC50 ([2]; IC50 NTS1, displacement of 125I-[Tyr3]-NT) [µM]
CC(C)C[C@H](NC(=O)[C@H](C)NC(=O)[C@@H]1CC=CC[C@H](N)C(=O)N[C@@H](CCCCN)C(=O)N[C@@H](CCCCN)C(=O)N1)C(=O)O [compound 138, c[G(All)KKG(All)]AL] (H-[AllylGly]KK[AllylGly]AL-OH; staple 1-4) | 0.582 | 172 | > 100 | – | –
CC(C)C[C@H](NC(=O)[C@H](Cc1ccc(-c2ccccc2)cc1)NC(=O)[C@@H]1CC=CC[C@H](N)C(=O)N[C@@H](CCCCN)C(=O)N[C@@H](CCCCN)C(=O)N1)C(=O)O [compound 139, c[G(All)KKG(All)]A (biphenyl)L] (H-[AllylGly]KK[AllylGly][Bip]L-OH; staple 1-4) | 0.0485 | 2061 | > 100 | – | –
CC(C)C[C@H](NC(=O)[C@@H](NC(=O)[C@@H]1CC=CC[C@H](N)C(=O)N[C@@H](CCCCN)C(=O)N[C@@H](CCCCN)C(=O)N1)C(c1ccccc1)c1ccccc1)C(=O)O [compound 140, c[G(All)KKG(All)]A (diphenyl)L] (H-[AllylGly]KK[AllylGly][Dip]L-OH; staple 1-4) | 0.631 | 158 | > 100 | – | –
CC(C)C[C@H](NC(=O)[C@H](CC1CCCC1)NC(=O)[C@@H]1CC=CC[C@H](N)C(=O)N[C@@H](CCCCN)C(=O)N[C@@H](CCCCN)C(=O)N1)C(=O)O [compound 142, c[G(All)KKG(All)]A (cyclopentyl)L] (H-[AllylGly]KK[AllylGly][Ala(cPent)]L-OH; staple 1-4) | 0.204 | 490 | > 100 | – | –
CC(C)C[C@H](NC(=O)[C@H](CC1CCC1)NC(=O)[C@@H]1CC=CC[C@H](N)C(=O)N[C@@H](CCCCN)C(=O)N[C@@H](CCCCN)C(=O)N1)C(=O)O [compound 143, c[G(All)KKG(All)]A (cyclobutyl)L] (H-[AllylGly]KK[AllylGly][Cba]L-OH; staple 1-4) | 0.276 | 362 | > 100 | – | –
CC(C)C[C@H](NC(=O)[C@H](Cc1ccc(O)cc1)NC(=O)[C@@H]1CC=CC[C@H](N)C(=O)N[C@@H](CCCCN)C(=O)N[C@@H](CCCNC(N)=O)C(=O)N1)C(=O)O [compound 146, c[G(All)KcitrullineG(All)]YL] (H-[AllylGly]K[Cit][AllylGly]YL-OH; staple 1-4) | 0.698 | 143 | > 100 | – | –
CC(C)C[C@H](NC(=O)[C@H](Cc1ccc(O)cc1)NC(=O)[C@@H]1CC=CC[C@H](N)C(=O)N[C@@H](CCCNC(N)=O)C(=O)N[C@@H](CCCCN)C(=O)N1)C(=O)O [compound 147, c[G(All)citrullineKG(All)]YL] (H-[AllylGly][Cit]K[AllylGly]YL-OH; staple 1-4) | 0.6 | 167 | > 100 | – | –
CC(C)C[C@H](NC(=O)[C@H](Cc1ccc(O)cc1)NC(=O)[C@@H]1CC=CC[C@H](N)C(=O)N[C@@H](CCCNC(N)=O)C(=O)N[C@@H](CCCNC(N)=O)C(=O)N1)C(=O)O [compound 148, c[G(All)citrulline-citrullineG (All)]YL] (H-[AllylGly][Cit][Cit][AllylGly]YL-OH; staple 1-4) | 7.9 | 13 | > 100 | – | –
CC(C)C[C@H](NC(=O)[C@H](Cc1ccc(O)cc1)NC(=O)[C@@H]1CC=CC[C@H](N)C(=O)N[C@@H](CCCCN)C(=O)N[C@@H](CCCCCN)C(=O)N1)C(=O)O [compound 149, c[G(All)KhomolysineG(All)]YL] (H-[AllylGly]K[hLys][AllylGly]YL-OH; staple 1-4) | 0.214 | 468 | > 100 | – | –
CC(C)C[C@H](NC(=O)[C@H](Cc1ccc(O)cc1)NC(=O)[C@@H]1CC=CC[C@H](N)C(=O)N[C@@H](CCCCCN)C(=O)N[C@@H](CCCCN)C(=O)N1)C(=O)O [compound 150, c[G(All)homolysineKG(All)]YL] (H-[AllylGly][hLys]K[AllylGly]YL-OH; staple 1-4) | 0.187 | 533 | > 100 | – | –
CC(C)C[C@H](NC(=O)[C@H](Cc1ccc(O)cc1)NC(=O)[C@@H]1CC=CC[C@H](N)C(=O)N[C@@H](CCCCCN)C(=O)N[C@@H](CCCCCN)C(=O)N1)C(=O)O [compound 151, c[G(All)K(homo)K (homo)G(All)]YL] (H-[AllylGly][hLys][hLys][AllylGly]YL-OH; staple 1-4) | 0.104 | 962 | > 100 | – | –
CC(C)C[C@H](NC(=O)[C@H](Cc1ccc(O)cc1)NC(=O)[C@@H]1CSSC[C@H](N)C(=O)N[C@@H](CCCCN)C(=O)N[C@@H](CCCCN)C(=O)N1)C(=O)O [compound 152, c[CKKC]YL] (H-CKKCYL-OH; disulfide 1-4) | 1.4 | 7 | > 1000 | – | –
CC(C)C[C@H](NC(=O)[C@H](Cc1ccc(O)cc1)NC(=O)[C@H]1NC(=O)[C@H](CCCCN)NC(=O)[C@H](CCCCN)NC(=O)[C@@H](N)CSSC1(C)C)C(=O)O [compound 153, c[CKKPen]YL] (H-CKK[Pen]YL-OH; disulfide 1-4) | 0.0348 | 2871 | > 100 | – | –
CC(C)C[C@H](NC(=O)[C@H](Cc1ccc(O)cc1)NC(=O)[C@@H]1CSSC(C)(C)[C@H](N)C(=O)N[C@@H](CCCCN)C(=O)N[C@@H](CCCCN)C(=O)N1)C(=O)O [compound 154, c[PenKKC]YL] (H-[Pen]KKCYL-OH; disulfide 1-4) | 1.2 | 81 | > 100 | – | –
CC(C)C[C@H](NC(=O)[C@H](Cc1ccc(O)cc1)NC(=O)[C@H]1NC(=O)[C@H](CCCCN)NC(=O)[C@H](CCCCN)NC(=O)[C@@H](N)C(C)(C)SSC1(C)C)C(=O)O [compound 155, c[(Pen)KK(Pen)]YL] (H-[Pen]KK[Pen]YL-OH; disulfide 1-4) | 0.318 | 315 | > 100 | – | –
CC(C)C[C@H](NC(=O)[C@H](Cc1ccc(O)cc1)NC(=O)[C@@H]1CC=CC[C@H](NC(=O)[C@@H](N)CCCCN)C(=O)N[C@@H](CCCCN)C(=O)N[C@@H](CCCCN)C(=O)N1)C(=O)O [compound 156, Kc[G(All)KKG(All)]YL] (H-K[AllylGly]KK[AllylGly]YL-OH; staple 2-5) | 0.0066 | 15244 | > 100 | – | –
CC(C)C[C@H](NC(=O)[C@H](Cc1cccs1)NC(=O)[C@@H]1CC=CC[C@H](N)C(=O)N[C@@H](CCCCN)C(=O)N[C@@H](CCCCN)C(=O)N1)C(=O)O [compound 159, c[G(All)KKG(All)]A(2-thienyl)L] (H-[AllylGly]KK[AllylGly][2Thi]L-OH; staple 1-4) | 0.09 | 1112 | > 100 | – | –
CC(C)C[C@H](NC(=O)[C@H](Cc1ccc(C(=O)c2ccccc2)cc1)NC(=O)[C@@H]1CC=CC[C@H](N)C(=O)N[C@@H](CCCCN)C(=O)N[C@@H](CCCCN)C(=O)N1)C(=O)O [compound 160, c[G(All)KKG(All)]F (benzoyl)L] (H-[AllylGly]KK[AllylGly][Bpa]L-OH; staple 1-4) | – | 2 | – | 0.115 | > 100
CC(C)C[C@H](NC(=O)[C@H](C/C=C/c1ccccc1)NC(=O)[C@@H]1CC=CC[C@H](N)C(=O)N[C@@H](CCCCN)C(=O)N[C@@H](CCCCN)C(=O)N1)C(=O)O [compound 161, c[G(All)KKG(All)]A(styryl) L] (H-[AllylGly]KK[AllylGly][Ala(E-styryl)]L-OH; staple 1-4) | 0.131 | 766 | > 100 | – | –
